Measured values reported in patent US20200268703A1, “MEDICINE FOR TREATING ADVANCED OR RECURRENT CANCER PATIENT BEING NON-RESPONSIVE OR NON-TOLERANT TO STANDARD CHEMOTHERAPY AND INCURABLE AND UNRESECTABLE” (HYOGO COLLEGE OF MEDICINE, priority 2017, published 2020).
Several values for one entry are separate records, joined by “and”; a condition that tells them apart may be missing. Equal values may be shown once.

Tested on: advanced or recurrent gastric cancer which is non-responsive or non-tolerant to standard chemotherapy and incurable and unresectable
Test: Clinical trial of propagermanium in patients with advanced or recurrent gastric cancer (OS, PFS, lung metastasis imaging)
Type: in vivo, human
Conditions: for OS / PFS: 30 mg orally per day
Experimental: 30 mg of propagermanium [trade name: SEROCION (registered trademark), produced by SANWA KAGAKU KENKYUSHO CO., LTD.] was administered orally in three divided doses per day after meals to 13 patient cases (P-1 to P-13) who were diagnosed as advanced or recurrent gastric cancer which is non-responsive or non-tolerant to standard chemotherapy [gastric cancer treatment guideline fourth edition (edited by Japan Gastric cancer Association, revised in May 2014)] and incurable and unresectable, and a clinical trial was conducted with overall survival (hereinafter also referred to as “OS”) and progression-free survival (hereinafter also referred to as “PFS”) as evaluation items. This clinical trial was conducted under an approval of Ethics Committee of Hyogo College of Medicine (No. 1911). The ECOG performance status (hereinafter also referred to as “PS”), the OS, and the PFS of 13 patient cases are shown in Table 1.
On the other hand, in Hyogo College of Medicine Hospital from 2009 to 2011, in 62 cases which were diagnosed as advanced gastric cancer which is non-responsive or non-tolerant to standard chemotherapy and incurable and unresectable and for which palliative care (Best Supportive Care; hereinafter “BSC”) to reduce pain was provided, the median of OS from the time when a doctor explained BSC to the patient was 22 days.
13 Patient cases in which the propagermanium was administered and 62 patient cases in which the BSC was provided were divided into two groups of (A) 0 and 1 and (B) 2 and 3 according to PS thereof. In the two groups, medians of the OS in the propagermanium administration examples and BSC examples were compared. As a result, in the patient groups whose PS was (A) 0 and 1, the median of OS in the BSC examples was 23.5 days, whereas the median of OS in the propagermanium administration examples was 163 days. The survival time was extended approximately 7 times compared to the BSC examples. […] Accordingly, it was confirmed that the survival days were extended compared to the BSC examples.
In 13 patient cases in which the propagermanium was administered, mean values of OS were compared according to the presence and absence of the peritoneal metastasis (Table 2 and FIG. 4). As a result, the mean value of OS of 8 patient cases with the peritoneal metastasis was 81.1 days, whereas the mean value of OS of 5 patient cases without the peritoneal metastasis was 164.7 days. […] In addition, 13 patient cases in which the propagermanium was administered were divided into two groups of (C) 0 and 1 and (D) 2 and 3 according to the PS thereof. In the two groups, mean values of the OS were compared according to the presence or absence of the peritoneal metastasis (Table 2 and FIG. 4). As a result, in the patient group whose PS was (C) 0 and 1, the mean value of OS of 4 cases with the peritoneal metastasis was 139 days, whereas the mean value of OS of 3 cases without the peritoneal metastasis was 273 days. […] On the other hand, in the patient group whose PS was (D) 2 and 3, the mean value of OS of 4 cases with the peritoneal metastasis was 37.8 days, whereas the mean value of OS of 2 cases without the peritoneal metastasis was 56.3 days.

Q: With propagermanium as the substance, how does the “Median of PFS” value (13 patient cases) read?
A: Its value is 49 days.

Q: And the “Median of OS” value (13 patient cases, BSC examples (62 cases) 22 days)?
A: Its value is 73 days.

Q: And the “Kaplan Meier survival curves of OS versus BSC (FIG. 1)” value (13 propagermanium cases versus 62 BSC cases)?
A: Its value is “significant life prolongation effect”.

Q: What about the “Mean value of OS” value ((C) PS 0 and 1, with peritoneal metastasis, 4 cases) of the same substance?
A: The value was 139 days and 139 (4) days.

Q: And the “Mean value of OS” value ((C) PS 0 and 1, without peritoneal metastasis, 3 cases)?
A: Its value is 273 days and 273 (3) days.

Q: What about the “Mean value of OS” value ((D) PS 2 and 3, with peritoneal metastasis, 4 cases) of the same substance?
A: The value was 37.8 days and 37.8 (4) days.

Q: What about the “Mean value of OS” value ((D) PS 2 and 3, without peritoneal metastasis, 2 cases) of the same substance?
A: Its value is 56.3 days and 56.3 (2) days.

Q: What about the “OS without versus with peritoneal metastasis” value (shortened to “OS without versus”) (all 13 propagermanium patient cases) of the same substance?
A: The value was “significant life prolongation effect”.

Q: What about the “Mean value of OS” value (all patients, with peritoneal metastasis, 8 cases) of the same substance?
A: Its value is 81.1 days and 81.1 (8) days.

Q: What about the “Mean value of OS” value (all patients, without peritoneal metastasis, 5 cases) of the same substance?
A: The value was 164.7 days and 164.7 (5) days.

Q: What about the OS (patient P-1, PS 2) of the same substance?
A: Its OS is 76 days.

Q: And the PFS (patient P-1, PS 2)?
A: The PFS was 56 days.

Q: And the OS (patient P-2, PS 3)?
A: Its OS is 34 days.

Q: And the PFS (patient P-2, PS 3)?
A: The PFS was 3 days.

Q: What about the OS (patient P-3, PS 0) of the same substance?
A: Its OS is 344 days.

Q: What about the PFS (patient P-3, PS 0) of the same substance?
A: The PFS was 336 days.

Q: And the OS (patient P-4, PS 2)?
A: Its OS is 72 days.

Q: What about the PFS (patient P-4, PS 2) of the same substance?
A: Its PFS is 28 days.

Q: And the “Lesion site of lung (lung metastasis), imaging (FIG. 5)” value (patient P-5, 357th day after starting administration)?
A: The value was “scar was formed”.

Q: What about the PFS (patient P-5, PS 1) of the same substance?
A: Its PFS is 392 days.

Q: What about the “Lesion site of lung (lung metastasis), imaging (FIG. 5)” value (patient P-5, from the 35th day after starting administration) of the same substance?
A: Its value is “reduction was observed”.

Q: What about the OS (patient P-6, PS 3) of the same substance?
A: The OS was 36 days.

Q: And the PFS (patient P-6, PS 3)?
A: Its PFS is 22 days.

Q: And the OS (patient P-7, PS 0)?
A: Its OS is 83 days.

Q: What about the PFS (patient P-7, PS 0) of the same substance?
A: Its PFS is 49 days.

Q: And the OS (patient P-8, PS 1)?
A: The OS was 73 days.

Q: What about the PFS (patient P-8, PS 1) of the same substance?
A: The PFS was 73 days.

Q: What about the OS (patient P-9, PS 3) of the same substance?
A: The OS was 30 days.

Q: What about the PFS (patient P-9, PS 3) of the same substance?
A: Its PFS is 21 days.

Q: What about the OS (patient P-10, PS 2) of the same substance?
A: Its OS is 11 days.

Q: And the PFS (patient P-10, PS 2)?
A: Its PFS is 7 days.

Q: And the OS (patient P-11, PS 0)?
A: Its OS is 163 days.

Q: And the PFS (patient P-11, PS 0)?
A: Its PFS is 159 days.

Q: What about the OS (patient P-12, PS 1) of the same substance?
A: Its OS is 181 days.

Q: What about the PFS (patient P-12, PS 1) of the same substance?
A: Its PFS is 178 days.

Q: And the OS (patient P-13, PS 1)?
A: The OS was 61 days.

Q: What about the PFS (patient P-13, PS 1) of the same substance?
A: The PFS was 36 days.

Q: And the “Kaplan Meier survival curve of OS versus BSC (FIG. 2)” value (patient group PS (A) 0 and 1)?
A: Its value is “significant life prolongation effect”.

Q: What about the “Survival time extension compared to BSC examples” value (patient group PS (A) 0 and 1) of the same substance?
A: Its value is “approximately 7 times”.

Q: What about the “Median of OS” value (patient group PS (A) 0 and 1, BSC examples 23.5 days) of the same substance?
A: The value was 163 days.

Q: What about the “Median of OS” value (patient group PS (B) 2 and 3, BSC examples 22 days) of the same substance?
A: Its value is 35 days.

Q: And the “Kaplan Meier survival curve of OS versus BSC (FIG. 3)” value (patient group PS (B) 2 and 3, significant difference not confirmed)?
A: Its value is “tendency to prolong life”.

Q: And the “OS without versus” value (patient group PS (C) 0 and 1)?
A: The value was “significant life prolongation effect”.

Q: And the “OS without versus” value (patient group PS (D) 2 and 3, significant difference not confirmed)?
A: Its value is “tendency to prolong life”.
